Data taken from patent US9513294B2, “Megastokes amino-triazolyl-BODIPY compounds and applications to live neuron staining and human serum albumin FA1 drug site probing” (National University of Singapore, priority 2012, dated 2016).

Assay: Quantum yield measurements versus Acridine Yellow in EtOH
Format: physicochemical
Settings: MKCA compound library; quantum yield
Summary of the method: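 Fluorescence quantum yield is relative to Acridine Yellow in EtOH (Φ 0.47), with excitation at 460 nm. Integrated emission at 510–700 nm was corrected for absorbance at the excitation wavelength and for solvent refractive index.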
In the case of CCCc1cn(-c2ccc3n2[B-](F)(F)[N+]2=C(NCc4ccccc4C)C=CC2=C3c2ccc(NC(=O)CCl)cc2)nn1 [MKCA101-48], the “φ (%)” value is reported as 28.94%. For CCCCCC(O)c1cn(-c2ccc3n2[B-](F)(F)[N+]2=C(NCc4ccccc4C)C=CC2=C3c2ccc(NC(=O)CCl)cc2)nn1 (stereo not drawn) [MKCA101-69], the “φ (%)” value was 21.93%. In the case of Cc1ccccc1CNC1=[N+]2C(=C(c3ccc(NC(=O)CCl)cc3)c3ccc(-n4cc(CO)nn4)n3[B-]2(F)F)C=C1 [MKCA101-70], the “φ (%)” value is reported as 21.76%. In the case of CCCC(C)c1cn(-c2ccc3n2[B-](F)(F)[N+]2=C(NCc4ccccc4OCC)C=CC2=C3c2ccc(NC(=O)CCl)cc2)nn1 (stereo not drawn) [MKCA103-3], the “φ (%)” value is reported as 23.61%. In the case of CCOc1ccccc1CNC1=[N+]2C(=C(c3ccc(NC(=O)CCl)cc3)c3ccc(-n4cc(C5CC5)nn4)n3[B-]2(F)F)C=C1 [MKCA103-4], the “φ (%)” value is reported as 36.22%. In the case of CCOc1ccccc1CNC1=[N+]2C(=C(c3ccc(NC(=O)CCl)cc3)c3ccc(-n4cc(C5CCCC5)nn4)n3[B-]2(F)F)C=C1 [MKCA103-5], the “φ (%)” value is reported as 33.46%. For CCOc1ccccc1CNC1=[N+]2C(=C(c3ccc(NC(=O)CCl)cc3)c3ccc(-n4cc(CC5CCCCC5)nn4)n3[B-]2(F)F)C=C1 [MKCA103-8], the “φ (%)” value was 37.77%. With CCOc1ccccc1CNC1=[N+]2C(=C(c3ccc(NC(=O)CCl)cc3)c3ccc(-n4cc(CN(C)Cc5ccccc5)nn4)n3[B-]2(F)F)C=C1 [MKCA103-18] the “φ (%)” value was 24.66%. For CCOc1ccccc1CNC1=[N+]2C(=C(c3ccc(NC(=O)CCl)cc3)c3ccc(-n4cc(CCc5ccccc5)nn4)n3[B-]2(F)F)C=C1 [MKCA103-19], the “φ (%)” value was 36.82%. With CCOc1ccccc1CNC1=[N+]2C(=C(c3ccc(NC(=O)CCl)cc3)c3ccc(-n4cc(CC(C)C)nn4)n3[B-]2(F)F)C=C1 [MKCA103-43] the “φ (%)” value was 33.76%. With CCCc1cn(-c2ccc3n2[B-](F)(F)[N+]2=C(NCc4ccccc4OCC)C=CC2=C3c2ccc(NC(=O)CCl)cc2)nn1 [MKCA103-48] the “φ (%)” value was 38.23%. With CCCCCC(O)c1cn(-c2ccc3n2[B-](F)(F)[N+]2=C(NCc4ccccc4OCC)C=CC2=C3c2ccc(NC(=O)CCl)cc2)nn1 (stereo not drawn) [MKCA103-69] the “φ (%)” value was 33.49%. In the case of CCOc1ccccc1CNC1=[N+]2C(=C(c3ccc(NC(=O)CCl)cc3)c3ccc(-n4cc(CO)nn4)n3[B-]2(F)F)C=C1 [MKCA103-70], the “φ (%)” value is reported as 20.22%. For COc1ccc(OC)c(CNC2=[N+]3C(=C(c4ccc(NC(=O)CCl)cc4)c4ccc(-n5cc(C6CC6)nn5)n4[B-]3(F)F)C=C2)c1 [MKCA181-4], the “φ (%)” value was 19.35%.

Assay: Absorbance and fluorescence emission spectra (SpectraMax M2)
Format: physicochemical
Settings: MKCA compound library; absorbance maximum
Summary of the method: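 Absorbance and emission maxima measured on a SpectraMax M2 spectrophotometer, which also gave quantum yield data; analysis in GraphPrism.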
In the case of CCCc1cn(-c2ccc3n2[B-](F)(F)[N+]2=C(NCc4ccccc4C)C=CC2=C3c2ccc(NC(=O)CCl)cc2)nn1 [MKCA101-48], the “λmax Absorp. (nm)” value is reported as 465 nm. With CCCCCC(O)c1cn(-c2ccc3n2[B-](F)(F)[N+]2=C(NCc4ccccc4C)C=CC2=C3c2ccc(NC(=O)CCl)cc2)nn1 (stereo not drawn) [MKCA101-69] the “λmax Absorp. (nm)” value was 466 nm. With Cc1ccccc1CNC1=[N+]2C(=C(c3ccc(NC(=O)CCl)cc3)c3ccc(-n4cc(CO)nn4)n3[B-]2(F)F)C=C1 [MKCA101-70] the “λmax Absorp. (nm)” value was 465 nm. For CCCC(C)c1cn(-c2ccc3n2[B-](F)(F)[N+]2=C(NCc4ccccc4OCC)C=CC2=C3c2ccc(NC(=O)CCl)cc2)nn1 (stereo not drawn) [MKCA103-3], the “λmax Absorp. (nm)” value was 466 nm. For CCOc1ccccc1CNC1=[N+]2C(=C(c3ccc(NC(=O)CCl)cc3)c3ccc(-n4cc(C5CC5)nn4)n3[B-]2(F)F)C=C1 [MKCA103-4], the “λmax Absorp. (nm)” value was 464 nm. In the case of CCOc1ccccc1CNC1=[N+]2C(=C(c3ccc(NC(=O)CCl)cc3)c3ccc(-n4cc(C5CCCC5)nn4)n3[B-]2(F)F)C=C1 [MKCA103-5], the “λmax Absorp. (nm)” value is reported as 464 nm. With CCOc1ccccc1CNC1=[N+]2C(=C(c3ccc(NC(=O)CCl)cc3)c3ccc(-n4cc(CC5CCCCC5)nn4)n3[B-]2(F)F)C=C1 [MKCA103-8] the “λmax Absorp. (nm)” value was 464 nm. With CCOc1ccccc1CNC1=[N+]2C(=C(c3ccc(NC(=O)CCl)cc3)c3ccc(-n4cc(CN(C)Cc5ccccc5)nn4)n3[B-]2(F)F)C=C1 [MKCA103-18] the “λmax Absorp. (nm)” value was 462 nm. In the case of CCOc1ccccc1CNC1=[N+]2C(=C(c3ccc(NC(=O)CCl)cc3)c3ccc(-n4cc(CCc5ccccc5)nn4)n3[B-]2(F)F)C=C1 [MKCA103-19], the “λmax Absorp. (nm)” value is reported as 464 nm. With CCOc1ccccc1CNC1=[N+]2C(=C(c3ccc(NC(=O)CCl)cc3)c3ccc(-n4cc(CC(C)C)nn4)n3[B-]2(F)F)C=C1 [MKCA103-43] the “λmax Absorp. (nm)” value was 465 nm. With CCCc1cn(-c2ccc3n2[B-](F)(F)[N+]2=C(NCc4ccccc4OCC)C=CC2=C3c2ccc(NC(=O)CCl)cc2)nn1 [MKCA103-48] the “λmax Absorp. (nm)” value was 465 nm. In the case of CCCCCC(O)c1cn(-c2ccc3n2[B-](F)(F)[N+]2=C(NCc4ccccc4OCC)C=CC2=C3c2ccc(NC(=O)CCl)cc2)nn1 (stereo not drawn) [MKCA103-69], the “λmax Absorp. (nm)” value is reported as 465 nm. For CCOc1ccccc1CNC1=[N+]2C(=C(c3ccc(NC(=O)CCl)cc3)c3ccc(-n4cc(CO)nn4)n3[B-]2(F)F)C=C1 [MKCA103-70], the “λmax Absorp. (nm)” value was 463 nm. In the case of COc1ccc(OC)c(CNC2=[N+]3C(=C(c4ccc(NC(=O)CCl)cc4)c4ccc(-n5cc(C6CC6)nn5)n4[B-]3(F)F)C=C2)c1 [MKCA181-4], the “λmax Absorp. (nm)” value is reported as 464 nm.

Same assay, conditions: MKCA compound library; fluorescence emission maximum
In the case of CCCc1cn(-c2ccc3n2[B-](F)(F)[N+]2=C(NCc4ccccc4C)C=CC2=C3c2ccc(NC(=O)CCl)cc2)nn1 [MKCA101-48], the “λmax Emission (nm)” value is reported as 562 nm. In the case of CCCCCC(O)c1cn(-c2ccc3n2[B-](F)(F)[N+]2=C(NCc4ccccc4C)C=CC2=C3c2ccc(NC(=O)CCl)cc2)nn1 (stereo not drawn) [MKCA101-69], the “λmax Emission (nm)” value is reported as 562 nm. With Cc1ccccc1CNC1=[N+]2C(=C(c3ccc(NC(=O)CCl)cc3)c3ccc(-n4cc(CO)nn4)n3[B-]2(F)F)C=C1 [MKCA101-70] the “λmax Emission (nm)” value was 560 nm. With CCCC(C)c1cn(-c2ccc3n2[B-](F)(F)[N+]2=C(NCc4ccccc4OCC)C=CC2=C3c2ccc(NC(=O)CCl)cc2)nn1 (stereo not drawn) [MKCA103-3] the “λmax Emission (nm)” value was 562 nm. For CCOc1ccccc1CNC1=[N+]2C(=C(c3ccc(NC(=O)CCl)cc3)c3ccc(-n4cc(C5CC5)nn4)n3[B-]2(F)F)C=C1 [MKCA103-4], the “λmax Emission (nm)” value was 564 nm. With CCOc1ccccc1CNC1=[N+]2C(=C(c3ccc(NC(=O)CCl)cc3)c3ccc(-n4cc(C5CCCC5)nn4)n3[B-]2(F)F)C=C1 [MKCA103-5] the “λmax Emission (nm)” value was 563 nm. With CCOc1ccccc1CNC1=[N+]2C(=C(c3ccc(NC(=O)CCl)cc3)c3ccc(-n4cc(CC5CCCCC5)nn4)n3[B-]2(F)F)C=C1 [MKCA103-8] the “λmax Emission (nm)” value was 563 nm. In the case of CCOc1ccccc1CNC1=[N+]2C(=C(c3ccc(NC(=O)CCl)cc3)c3ccc(-n4cc(CN(C)Cc5ccccc5)nn4)n3[B-]2(F)F)C=C1 [MKCA103-18], the “λmax Emission (nm)” value is reported as 561 nm. In the case of CCOc1ccccc1CNC1=[N+]2C(=C(c3ccc(NC(=O)CCl)cc3)c3ccc(-n4cc(CCc5ccccc5)nn4)n3[B-]2(F)F)C=C1 [MKCA103-19], the “λmax Emission (nm)” value is reported as 563 nm. In the case of CCOc1ccccc1CNC1=[N+]2C(=C(c3ccc(NC(=O)CCl)cc3)c3ccc(-n4cc(CC(C)C)nn4)n3[B-]2(F)F)C=C1 [MKCA103-43], the “λmax Emission (nm)” value is reported as 563 nm. In the case of CCCc1cn(-c2ccc3n2[B-](F)(F)[N+]2=C(NCc4ccccc4OCC)C=CC2=C3c2ccc(NC(=O)CCl)cc2)nn1 [MKCA103-48], the “λmax Emission (nm)” value is reported as 562 nm. With CCCCCC(O)c1cn(-c2ccc3n2[B-](F)(F)[N+]2=C(NCc4ccccc4OCC)C=CC2=C3c2ccc(NC(=O)CCl)cc2)nn1 (stereo not drawn) [MKCA103-69] the “λmax Emission (nm)” value was 562 nm. With CCOc1ccccc1CNC1=[N+]2C(=C(c3ccc(NC(=O)CCl)cc3)c3ccc(-n4cc(CO)nn4)n3[B-]2(F)F)C=C1 [MKCA103-70] the “λmax Emission (nm)” value was 563 nm. For COc1ccc(OC)c(CNC2=[N+]3C(=C(c4ccc(NC(=O)CCl)cc4)c4ccc(-n5cc(C6CC6)nn5)n4[B-]3(F)F)C=C2)c1 [MKCA181-4], the “λmax Emission (nm)” value was 566 nm.
